What all share (type): in vivo
One assay has as its system Cyperus difformis. Put plainly: Test Example 3: herbicidal effect by application to foliage (Wagner pot, water depth 0.1-0.5 cm). To be noted: Nineteenth Table; application to foliage; application herbicide amount 320 g/ha. A digest of the protocol: (§1)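 Visual 0–5 rating of herbicidal ratio, taken 3 weeks after foliar spray of a diluted emulsion formulation at rates expressed as g/ha. Plants had been sown in alluvial soil under 0.1–0.5 cm water and grown 14 days at 25–30 °C under glass before application.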

In assay [1] the test system is Echinochloa crus-galli var. crus-galli. The assay is described as above. To be noted: Nineteenth Table; application to foliage; application herbicide amount 320 g/ha. The essentials:
as §1

The next assay concerns Leptochloa chinensis. Described as above. To be noted: Nineteenth Table; application to foliage; application herbicide amount 320 g/ha. A digest of the protocol:
as §1

A further assay deals with Abutilon theophrasti. Put plainly: Test Example 4: herbicidal effect by application to foliage (diluvial soil, plastic box). The conditions noted are these: for M (Abutilon theophrasti) herbicidal effect grade: Application herbicide amount 320 g/ha, foliage application. The essentials:
(§2)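 Seeds sown in sterilized diluvial soil, covered ~1.5 cm, grown 14 days in greenhouse at 25° C. to 30° C. Emulsion formulation diluted in water to set rate (g/ha) and sprayed onto stems and leaves. Effect scored visually 3 weeks later on 0–5 scale (5 = ≥90% herbicidal ratio, 0 = ≤5%).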

The next assay has as its system Alopecurus myosuroides. The assay is described as above. The conditions noted are these: for J (Alopecurus myosuroides) herbicidal effect grade: Application herbicide amount 320 g/ha, foliage application. The essentials: as §2
Another assay relates to Amaranthus retroflexus. The description is as above. To be noted: for N (Amaranthus retroflexus) herbicidal effect grade: Application herbicide amount 320 g/ha, foliage application. A digest of the protocol: as §2
A further assay deals with Apera spica-venti. The description is as above. The conditions noted are these: for L (Apera spica-venti.) herbicidal effect grade: Application herbicide amount 320 g/ha, foliage application. A digest of the protocol: as §2
The subject of another assay is Chenopodium album. Described as above. To be noted: for O (Chenopodium album) herbicidal effect grade: Application herbicide amount 320 g/ha, foliage application. A digest of the protocol:
as §2

In another assay the test system is Digitaria ciliaris. The assay is described as above. To be noted: for F (Digitaria ciliaris) herbicidal effect grade: Application herbicide amount 320 g/ha, foliage application. A digest of the protocol: as §2
For another assay, the system named is Setaria viridis. Described as above. To be noted: for G (Setaria viridis) herbicidal effect grade: Application herbicide amount 320 g/ha, foliage application. The essentials:
as §2

The subject of another assay is Stellaria media. Described as above. The conditions noted are these: for P (Stellaria media) herbicidal effect grade: Application herbicide amount 320 g/ha, foliage application. The essentials: as §2
The next assay has as its system Veronica persica. Described as above. To be noted: for R (Veronica persica) herbicidal effect grade: Application herbicide amount 320 g/ha, foliage application. The essentials: as §2
[2] abbreviates: application to foliage, application herbicide amount 320 g/ha.

In the case of `Cn1nnnc1NC(=O)c1ccc(C(F)(F)F)n2c(-c3ccc(Cl)cc3)nnc12` [2-012], the “E (herbicidal effect grade)” value in the assay on Cyperus difformis is on record as 5 (Herbicidal ratio of 90% or more (almost completely withered)). In addition, in assay [1], the “H (herbicidal effect grade)” value is 4 (Herbicidal ratio of 70% or more and less than 90%). The “D (herbicidal effect grade)” value in the assay on Leptochloa chinensis was 5 (Herbicidal ratio of 90% or more (almost completely withered)). The “M: herbicidal effect on Abutilon theophrasti” value in the assay with Abutilon theophrasti (setting [2]) is listed as 5 (Herbicidal ratio of 90% or more (almost completely withered)). Moreover, the “J: herbicidal effect on Alopecurus myosuroides” value in the assay on Alopecurus myosuroides (setting [2]) was 2 (Herbicidal ratio of 20% or more and less than 40%). Besides, the “N: herbicidal effect on Amaranthus retroflexus” value with Amaranthus retroflexus (setting [2]) is given as 5 (Herbicidal ratio of 90% or more (almost completely withered)). Further, in the assay with Apera spica-venti. (setting [2]), the “L: herbicidal effect on Apera spica-venti.” value was 2 (Herbicidal ratio of 20% or more and less than 40%). In addition, the “O: herbicidal effect on Chenopodium album” value with Chenopodium album (setting [2]) was 5 (Herbicidal ratio of 90% or more (almost completely withered)). Also, in the assay on Digitaria ciliaris (setting [2]), the “F: herbicidal effect on Digitaria ciliaris” value is 4 (Herbicidal ratio of 70% or more and less than 90%). Moreover, in the assay on Setaria viridis (setting [2]), the “G: herbicidal effect on Setaria viridis” value is 1 (Herbicidal ratio of 5% or more and less than 20%). For the same molecule, the “P: herbicidal effect on Stellaria media” value with Stellaria media (setting [2]) is reported as 5 (Herbicidal ratio of 90% or more (almost completely withered)). Besides, the “R: herbicidal effect on Veronica persica” value with Veronica persica (setting [2]) is 4 (Herbicidal ratio of 70% or more and less than 90%).
With `COc1ccc(Cc2nnc3c(C(=O)Nc4nnco4)ccc(C(F)(F)F)n23)cc1` [1-151], the “E (herbicidal effect grade)” value in the assay on Cyperus difformis is 4 (Herbicidal ratio of 70% or more and less than 90%). The “H (herbicidal effect grade)” value in assay [1] is 5 (Herbicidal ratio of 90% or more (almost completely withered)). Besides, the “D (herbicidal effect grade)” value with Leptochloa chinensis was 4 (Herbicidal ratio of 70% or more and less than 90%). Also, the “M (Abutilon theophrasti) herbicidal effect grade” value with Abutilon theophrasti is 3 (Herbicidal ratio of 40% or more and less than 70%). In addition, in the assay on Alopecurus myosuroides, the “J (Alopecurus myosuroides) herbicidal effect grade” value was 1 (Herbicidal ratio of 5% or more and less than 20%). For the same molecule, in the assay on Amaranthus retroflexus, the “N (Amaranthus retroflexus) herbicidal effect grade” value was 5 (Herbicidal ratio of 90% or more (almost completely withered)). The “L (Apera spica-venti.) herbicidal effect grade” value in the assay on Apera spica-venti. was 2 (Herbicidal ratio of 20% or more and less than 40%). In addition, the “O (Chenopodium album) herbicidal effect grade” value in the assay on Chenopodium album was 5 (Herbicidal ratio of 90% or more (almost completely withered)). Further, the “F (Digitaria ciliaris) herbicidal effect grade” value in the assay with Digitaria ciliaris is given as 5 (Herbicidal ratio of 90% or more (almost completely withered)). Besides, the “G (Setaria viridis) herbicidal effect grade” value with Setaria viridis was 3 (Herbicidal ratio of 40% or more and less than 70%). Besides, the “P (Stellaria media) herbicidal effect grade” value with Stellaria media is 5 (Herbicidal ratio of 90% or more (almost completely withered)). Also, the “R (Veronica persica) herbicidal effect grade” value in the assay on Veronica persica was 5 (Herbicidal ratio of 90% or more (almost completely withered)).
For `CSCc1nnc2c(C(=O)Nc3nnco3)ccc(C(F)(F)F)n12` [1-146], the “E (herbicidal effect grade)” value in the assay with Cyperus difformis was 4 (Herbicidal ratio of 70% or more and less than 90%). Also, the “H (herbicidal effect grade)” value in assay [1] is 5 (Herbicidal ratio of 90% or more (almost completely withered)). In the assay with Leptochloa chinensis, the “D (herbicidal effect grade)” value is 5 (Herbicidal ratio of 90% or more (almost completely withered)). In the assay on Abutilon theophrasti, the “M (Abutilon theophrasti) herbicidal effect grade” value is 4 (Herbicidal ratio of 70% or more and less than 90%). Also, the “J (Alopecurus myosuroides) herbicidal effect grade” value with Alopecurus myosuroides was 2 (Herbicidal ratio of 20% or more and less than 40%). Besides, the “N (Amaranthus retroflexus) herbicidal effect grade” value with Amaranthus retroflexus is recorded as 5 (Herbicidal ratio of 90% or more (almost completely withered)). In addition, the “L (Apera spica-venti.) herbicidal effect grade” value with Apera spica-venti. was 4 (Herbicidal ratio of 70% or more and less than 90%). In addition, in the assay on Chenopodium album, the “O (Chenopodium album) herbicidal effect grade” value is 5 (Herbicidal ratio of 90% or more (almost completely withered)). Moreover, in the assay with Digitaria ciliaris, the “F (Digitaria ciliaris) herbicidal effect grade” value was 5 (Herbicidal ratio of 90% or more (almost completely withered)). Moreover, in the assay on Setaria viridis, the “G (Setaria viridis) herbicidal effect grade” value is reported as 5 (Herbicidal ratio of 90% or more (almost completely withered)). In the assay on Stellaria media, the “P (Stellaria media) herbicidal effect grade” value is on record as 5 (Herbicidal ratio of 90% or more (almost completely withered)). The “R (Veronica persica) herbicidal effect grade” value in the assay with Veronica persica is listed as 5 (Herbicidal ratio of 90% or more (almost completely withered)).
